Measured values reported in article PMC6599250, “Functional diversity of inhibitors tackling the differentiation blockage of MLL-rearranged leukemia” (Journal of Hematology & Oncology, 2019).
Where two headings read alike, the source gives them in different places.

How the values were obtained:
Type in all cases: cell-based
RS4;11 (MLL-AF4) cells = assay: Cell proliferation (alamarBlue) RS4;11; conditions: Homo sapiens, RS4-11, read-out: IC50 proliferation, RS4;11 (MLL-AF4)
Procedure: (§1) Cells were seeded in the optimal growth medium at 4000–5000 cells/well in a 96 MTP and cultured 18–24 h before inhibitor treatment.

KOPN-8 (MLL-ENL) cells = assay: Cell proliferation (alamarBlue) KOPN-8; conditions: Homo sapiens
Procedure: as §1

SEM (MLL-AF4) cells = assay: Cell proliferation (alamarBlue) SEM
Procedure: as §1

EOL-1 (MLL-TD) cells = assay: Cell proliferation (alamarBlue) EOL-1; conditions: Homo sapiens
Procedure: as §1

[1] = tested on: MV4-11, MOLM-13 and HL-60 cells; assay: Cell cycle analysis (PI, flow cytometry); conditions: 4 days of treatment (Figure S2)
Procedure: Cells were washed with PBS and fixed overnight at − 20 °C with 70% ethanol. Fixed cells were stained with PI solution (Sigma-Aldrich St. Louis, MO, USA) solution containing RNase A (Qiagen, Hilden, Germany). Fluorescence was measured with FACS Canto II (BD Biosciences, Heidelberg, Germany) flow cytometer and data was analyzed with FACSDiva software.

ML-2 (MLL-AF6) cells = assay: Cell proliferation (alamarBlue) ML-2
Procedure: as §1

NOMO-1 (MLL-AF9) cells = assay: Cell proliferation (alamarBlue) NOMO-1; conditions: Homo sapiens
Procedure: as §1

HL-60 (MLL-WT) cells = assay: Cell proliferation (alamarBlue) HL-60; conditions: for IC50: Homo sapiens, read-out: IC50 proliferation
Procedure: as §1

[2] = tested on: MLL-fused cell lines (MV4-11, MOLM-13); assay: CD11b protein expression by flow cytometry, MLL-fused lines; conditions: 4 and 7 days of treatment
Procedure: (§2) Four thousand cells per well were seeded 24 h before they were treated with the indicated inhibitor in a 96 MTP. After 4 or 7 days of treatment, cells were washed with PBS and stained with CD11b - APC (BioLegend, San Diego, California, USA) and DAPI (Thermo Fisher Scientific, Waltham, Massachusetts, USA) or AnnexinV – FITC (BioLegend, San Diego, California, USA) and PI solution (Sigma-Aldrich St. Louis, Missouri, USA) using the FACS Canto II (BD Biosciences, Heidelberg, Germany) and data was analyzed with FACSDiva software.

OCI-AML-3 (MLL-WT) cells = assay: Cell proliferation (alamarBlue) OCI-AML-3; conditions: Homo sapiens
Procedure: as §1

MOLM-13 (MLL-AF9) cells = assay: Cell proliferation (alamarBlue) MOLM-13; conditions: Homo sapiens
Procedure: as §1

OCI-AML-5 (MLL-WT) cells = assay: Cell proliferation (alamarBlue) OCI-AML-5; conditions: Homo sapiens
Procedure: as §1

HL-60 cells = assay: CD11b protein expression by flow cytometry, HL-60; conditions: non-fused HL-60 cell line, 4 and 7 days of treatment
Procedure: as §2

MV4-11 (MLL-AF4) cells = assay: Cell proliferation (alamarBlue) MV4-11; conditions: Homo sapiens
Procedure: as §1

Jurkat (MLL-WT) cells = assay: Cell proliferation (alamarBlue) Jurkat; conditions: Homo sapiens
Procedure: as §1

[3] = tested on: OCI-AML-2 (MLL-AF9) cells; assay: Cell proliferation (alamarBlue) OCI-AML-2; conditions: Homo sapiens
Procedure: as §1

MOLM-14 (MLL-AF9) cells = assay: Cell proliferation (alamarBlue) MOLM-14; conditions: Homo sapiens
Procedure: as §1

[4] = tested on: selected MLL-fused models; assay: Cell proliferation, AML/ALL panel; conditions: specifically in selected MLL-fused models (Fig. 2a); read-out: proliferation IC50 (significant effects)
Procedure: as §1

`Cc1c(CN2CCC3(CC2)CN(c2ncnc4sc(CC(F)(F)F)cc24)C3)ccc2c1cc(C#N)n2CC(N)=O` [BAY-155] was tested, and the IC50 (RS4;11 (MLL-AF4) cells; D1) was greater than 10 µM, the IC50 (RS4;11 (MLL-AF4) cells; D4) was greater than 10 µM and the IC50 (RS4;11 (MLL-AF4) cells; D7) was 5.99 µM. For the same molecule, the IC50 (KOPN-8 (MLL-ENL) cells; KOPN-8, read-out: IC50 proliferation, KOPN-8 (MLL-ENL), D1) was greater than 10 µM, the IC50 (KOPN-8 (MLL-ENL) cells; KOPN-8, read-out: IC50 proliferation, KOPN-8 (MLL-ENL), D4) was 6.34 µM and the IC50 (KOPN-8 (MLL-ENL) cells; KOPN-8, read-out: IC50 proliferation, KOPN-8 (MLL-ENL), D7) was 1.89 µM. For the same molecule, the IC50 (SEM (MLL-AF4) cells; read-out: IC50 proliferation, SEM (MLL-AF4), D1) was greater than 10 µM, the IC50 (SEM (MLL-AF4) cells; read-out: IC50 proliferation, SEM (MLL-AF4), D4) was 0.66 µM and the IC50 (SEM (MLL-AF4) cells; read-out: IC50 proliferation, SEM (MLL-AF4), D7) was 0.79 µM. It also gave an IC50 (EOL-1 (MLL-TD) cells; EOL1, read-out: IC50 proliferation, EOL-1 (MLL-TD), D1) of 6.83 µM, an IC50 (EOL-1 (MLL-TD) cells; EOL1, read-out: IC50 proliferation, EOL-1 (MLL-TD), D4) of 1.62 µM and an IC50 (EOL-1 (MLL-TD) cells; EOL1, read-out: IC50 proliferation, EOL-1 (MLL-TD), D7) of 1.14 µM. The “cell cycle effect” value [1] was “decrease of cells in S and G2/M phase with increasing concentrations”, the IC50 (ML-2 (MLL-AF6) cells; read-out: IC50 proliferation, ML-2 (MLL-AF6), D1) was greater than 10 µM and the IC50 (ML-2 (MLL-AF6) cells; read-out: IC50 proliferation, ML-2 (MLL-AF6), D4) was greater than 10 µM. The IC50 (ML-2 (MLL-AF6) cells; read-out: IC50 proliferation, ML-2 (MLL-AF6), D7) was greater than 10 µM, the IC50 (NOMO-1 (MLL-AF9) cells; NOMO-1, read-out: IC50 proliferation, NOMO-1 (MLL-AF9), D1) was greater than 10 µM and the IC50 (NOMO-1 (MLL-AF9) cells; NOMO-1, read-out: IC50 proliferation, NOMO-1 (MLL-AF9), D4) was 0.15 µM. The IC50 (NOMO-1 (MLL-AF9) cells; NOMO-1, read-out: IC50 proliferation, NOMO-1 (MLL-AF9), D7) was 0.07 µM, the “anti-proliferation effect in non-fused HL-60” value (HL-60 (MLL-WT) cells; HL-60, 4 days of treatment (Fig. 1a)) was “only affected with the 10 μM treatment” and the IC50 (HL-60 (MLL-WT) cells; HL-60, 24 h) was greater than 10 µM. For the same molecule, the IC50 (HL-60 (MLL-WT) cells; HL-60, 96 h) was 9.04 µM, the IC50 (HL-60 (MLL-WT) cells; HL-60, 168 h) was greater than 10 µM and the “CD11b protein level” value [2] was “increased CD11b protein level in a dose and time-dependent manner”. For the same molecule, the IC50 (OCI-AML-3 (MLL-WT) cells; OCI-AML-3, read-out: IC50 proliferation, OCI-AML-3 (MLL-WT), D1) was greater than 10 µM, the IC50 (OCI-AML-3 (MLL-WT) cells; OCI-AML-3, read-out: IC50 proliferation, OCI-AML-3 (MLL-WT), D4) was 1.37 µM and the IC50 (OCI-AML-3 (MLL-WT) cells; OCI-AML-3, read-out: IC50 proliferation, OCI-AML-3 (MLL-WT), D7) was 1.56 µM. For the same molecule, the IC50 (MOLM-13 (MLL-AF9) cells; MOLM-13, read-out: IC50 proliferation, MOLM-13 (MLL-AF9), D1) was greater than 10 µM, the IC50 (MOLM-13 (MLL-AF9) cells; MOLM-13, read-out: IC50 proliferation, MOLM-13 (MLL-AF9), D4) was 0.14 µM and the IC50 (MOLM-13 (MLL-AF9) cells; MOLM-13, read-out: IC50 proliferation, MOLM-13 (MLL-AF9), D7) was 0.28 µM. It also gave an IC50 (OCI-AML-5 (MLL-WT) cells; OCI-AML-5, read-out: IC50 proliferation, OCI-AML-5 (MLL-WT), D1) greater than 10 µM, an IC50 (OCI-AML-5 (MLL-WT) cells; OCI-AML-5, read-out: IC50 proliferation, OCI-AML-5 (MLL-WT), D4) greater than 10 µM and an IC50 (OCI-AML-5 (MLL-WT) cells; OCI-AML-5, read-out: IC50 proliferation, OCI-AML-5 (MLL-WT), D7) of 8.56 µM. For the same molecule, the “CD11b level” value (HL-60 cells) was “did not increase CD11b level”, the IC50 (MV4-11 (MLL-AF4) cells; MV4-11, read-out: IC50 proliferation, MV4-11 (MLL-AF4), D1) was greater than 10 µM and the IC50 (MV4-11 (MLL-AF4) cells; MV4-11, read-out: IC50 proliferation, MV4-11 (MLL-AF4), D4) was 0.09 µM. The IC50 (MV4-11 (MLL-AF4) cells; MV4-11, read-out: IC50 proliferation, MV4-11 (MLL-AF4), D7) was 0.03 µM, the IC50 (Jurkat (MLL-WT) cells; read-out: IC50 proliferation, Jurkat (MLL-WT), D1) was greater than 10 µM and the IC50 (Jurkat (MLL-WT) cells; read-out: IC50 proliferation, Jurkat (MLL-WT), D4) was 9 µM. It also gave an IC50 (Jurkat (MLL-WT) cells; read-out: IC50 proliferation, Jurkat (MLL-WT), D7) of 9.09 µM, an IC50 ([3]; OCI-AML2, read-out: IC50 proliferation, OCI-AML-2 (MLL-AF9), D1) greater than 10 µM and an IC50 ([3]; OCI-AML2, read-out: IC50 proliferation, OCI-AML-2 (MLL-AF9), D4) of 8.26 µM. For the same molecule, the IC50 ([3]; OCI-AML2, read-out: IC50 proliferation, OCI-AML-2 (MLL-AF9), D7) was 9.15 µM, the IC50 (MOLM-14 (MLL-AF9) cells; MOLM-14, read-out: IC50 proliferation, MOLM-14 (MLL-AF9), D1) was 6.89 µM and the IC50 (MOLM-14 (MLL-AF9) cells; MOLM-14, read-out: IC50 proliferation, MOLM-14 (MLL-AF9), D4) was 0.31 µM. It also gave an IC50 (MOLM-14 (MLL-AF9) cells; MOLM-14, read-out: IC50 proliferation, MOLM-14 (MLL-AF9), D7) of 0.23 µM and an IC50 [4] of less than 1 µM.
